The values below come from PMC8645336, “Benchmarking a highly selective USP30 inhibitor for enhancement of mitophagy and pexophagy” (Life Science Alliance, 2021).

Each structure is given as a SMILES string.

Common to all, as to test: biochemical
Holding throughout (set-up): Ubiquigent DUB profiler selectivity panel, remaining enzyme activity as % of control
Conditions in all cases: read-out: % of control remaining

One experiment addresses T1, Cezanne (Homo sapiens, UniProt Q6GQQ9).
T1 construct: gene OTUD7B
T1 sequence (Q6GQQ9 1-843): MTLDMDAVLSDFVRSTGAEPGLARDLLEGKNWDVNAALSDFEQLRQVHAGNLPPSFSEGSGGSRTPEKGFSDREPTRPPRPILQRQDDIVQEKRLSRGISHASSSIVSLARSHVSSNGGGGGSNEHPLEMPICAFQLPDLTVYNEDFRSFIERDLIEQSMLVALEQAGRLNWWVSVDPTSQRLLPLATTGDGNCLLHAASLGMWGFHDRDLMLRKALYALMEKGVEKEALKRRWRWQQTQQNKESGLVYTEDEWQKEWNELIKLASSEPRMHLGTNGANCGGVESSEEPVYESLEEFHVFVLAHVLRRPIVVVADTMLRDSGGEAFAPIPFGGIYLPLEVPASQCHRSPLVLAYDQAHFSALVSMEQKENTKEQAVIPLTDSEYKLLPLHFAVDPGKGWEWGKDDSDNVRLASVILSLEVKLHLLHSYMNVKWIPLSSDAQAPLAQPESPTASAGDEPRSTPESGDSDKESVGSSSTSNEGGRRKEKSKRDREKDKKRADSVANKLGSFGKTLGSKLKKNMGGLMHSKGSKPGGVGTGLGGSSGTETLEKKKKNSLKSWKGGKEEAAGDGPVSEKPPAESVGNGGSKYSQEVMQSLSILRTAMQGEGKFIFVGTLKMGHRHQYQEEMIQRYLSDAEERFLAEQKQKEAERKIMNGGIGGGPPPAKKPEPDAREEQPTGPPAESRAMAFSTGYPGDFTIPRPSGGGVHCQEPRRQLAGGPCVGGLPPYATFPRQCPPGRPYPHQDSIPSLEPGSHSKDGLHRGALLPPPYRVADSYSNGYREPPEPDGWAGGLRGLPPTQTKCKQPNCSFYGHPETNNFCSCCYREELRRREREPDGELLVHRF
Summed up:
(§1)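 CMPD-39 selectivity was profiled at 1-100 μM across >40 DUBs. Cellular engagement used 2 h CMPD-39 pretreatment, then HA-Ub-PA probe for 10 min at 37°C, with USP30 band shift on immunoblot. TOMM20 ubiquitylation was blotted in YFP-PRKN hTERT-RPE1 cells after 1 h antimycin A/oligomycin A (1 μM each).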

Another experiment deals with USP16 (Homo sapiens, UniProt Q9Y5T5). A digest of the protocol: as §1
USP16, sequence (Q9Y5T5 whole entry): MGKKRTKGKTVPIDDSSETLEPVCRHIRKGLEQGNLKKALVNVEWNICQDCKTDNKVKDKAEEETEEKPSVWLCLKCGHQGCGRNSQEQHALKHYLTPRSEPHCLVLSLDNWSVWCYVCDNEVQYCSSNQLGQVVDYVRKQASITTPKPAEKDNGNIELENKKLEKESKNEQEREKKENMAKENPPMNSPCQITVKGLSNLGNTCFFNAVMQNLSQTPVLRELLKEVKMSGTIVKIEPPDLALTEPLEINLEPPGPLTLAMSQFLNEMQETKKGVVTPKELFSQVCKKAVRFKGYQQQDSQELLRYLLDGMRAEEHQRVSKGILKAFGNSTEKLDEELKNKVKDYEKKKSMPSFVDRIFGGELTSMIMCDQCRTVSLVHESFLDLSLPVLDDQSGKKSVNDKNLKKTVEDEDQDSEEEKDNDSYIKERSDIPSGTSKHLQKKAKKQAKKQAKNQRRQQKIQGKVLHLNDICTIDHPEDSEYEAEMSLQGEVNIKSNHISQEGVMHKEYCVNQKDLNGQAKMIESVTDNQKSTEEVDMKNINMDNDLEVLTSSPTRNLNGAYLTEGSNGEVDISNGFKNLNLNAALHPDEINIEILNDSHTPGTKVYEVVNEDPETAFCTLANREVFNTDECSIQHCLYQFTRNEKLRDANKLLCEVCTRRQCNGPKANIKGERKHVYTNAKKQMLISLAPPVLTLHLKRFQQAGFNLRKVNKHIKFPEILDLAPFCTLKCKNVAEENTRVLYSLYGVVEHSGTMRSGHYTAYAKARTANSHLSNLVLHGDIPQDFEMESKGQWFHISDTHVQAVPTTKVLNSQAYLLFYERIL
In the next experiment the target is T2, USP8 (Homo sapiens, UniProt P40818).
T2 sequence (P40818 1-1118): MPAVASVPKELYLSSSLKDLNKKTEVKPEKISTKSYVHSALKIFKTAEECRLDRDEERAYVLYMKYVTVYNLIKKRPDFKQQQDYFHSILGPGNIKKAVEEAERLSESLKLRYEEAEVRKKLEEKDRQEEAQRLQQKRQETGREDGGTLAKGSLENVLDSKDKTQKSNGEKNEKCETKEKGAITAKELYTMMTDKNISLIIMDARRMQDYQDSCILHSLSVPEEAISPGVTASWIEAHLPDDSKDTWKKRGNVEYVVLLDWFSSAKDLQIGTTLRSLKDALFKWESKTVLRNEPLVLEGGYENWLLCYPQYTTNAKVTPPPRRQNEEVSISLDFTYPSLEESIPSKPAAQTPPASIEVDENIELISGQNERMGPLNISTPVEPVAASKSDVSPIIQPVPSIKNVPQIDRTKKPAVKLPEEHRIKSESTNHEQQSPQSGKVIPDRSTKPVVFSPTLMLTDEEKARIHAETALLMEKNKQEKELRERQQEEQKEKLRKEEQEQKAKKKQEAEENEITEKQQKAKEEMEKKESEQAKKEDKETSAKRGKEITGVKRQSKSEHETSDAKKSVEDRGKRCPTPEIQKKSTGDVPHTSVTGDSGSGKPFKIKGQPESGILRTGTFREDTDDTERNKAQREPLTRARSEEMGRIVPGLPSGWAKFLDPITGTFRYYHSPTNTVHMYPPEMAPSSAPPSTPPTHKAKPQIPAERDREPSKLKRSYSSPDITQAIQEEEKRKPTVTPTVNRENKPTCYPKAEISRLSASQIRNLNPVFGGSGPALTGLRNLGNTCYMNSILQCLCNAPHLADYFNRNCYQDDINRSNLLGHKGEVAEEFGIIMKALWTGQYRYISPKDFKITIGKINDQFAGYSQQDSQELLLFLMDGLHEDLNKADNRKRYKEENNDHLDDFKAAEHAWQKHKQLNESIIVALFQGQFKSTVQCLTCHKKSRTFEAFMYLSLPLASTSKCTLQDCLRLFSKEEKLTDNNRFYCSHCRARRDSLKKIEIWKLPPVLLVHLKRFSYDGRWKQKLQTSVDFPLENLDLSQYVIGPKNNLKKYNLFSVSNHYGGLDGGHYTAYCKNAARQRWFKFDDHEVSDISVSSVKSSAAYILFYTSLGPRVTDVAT
A digest of the protocol:
as §1

With `CC(C)(C)NS(=O)(=O)c1ccc(NC(=O)[C@H](Cc2ccccc2)NC(=O)c2ccc(F)cc2)cc1` [compound 39, CMPD-39], the results for the remaining activity at 1 µM at Cezanne, on USP16 and on USP8 were 98.7%, 111% and 105%, respectively. The remaining activity at 10 µM at Cezanne worked out at 98.8%; on USP16, 100%; at USP8, 100%. In addition, the remaining activity at 100 µM on Cezanne turned out to be 94.4%; at USP16 it was 104%; on USP8 it was 102%.
